Experimental data from patent US9834542B2, “LXR modulators” (BRISTOL-MYERS SQUIBB COMPANY, priority 2013, dated 2017).

Biological target: T1, LXRβ (Homo sapiens, UniProt P55055)
T1 construct: Co-transfection expression plasmids, comprising full-length LXRα (pCMX-h LXRα[…] or LXRβ (pCMX-hLXRβ)); expressed in transfected cells; host or cells: CV-1 African Green Monkey Kidney Cells
T1 sequence (P55055 1-460): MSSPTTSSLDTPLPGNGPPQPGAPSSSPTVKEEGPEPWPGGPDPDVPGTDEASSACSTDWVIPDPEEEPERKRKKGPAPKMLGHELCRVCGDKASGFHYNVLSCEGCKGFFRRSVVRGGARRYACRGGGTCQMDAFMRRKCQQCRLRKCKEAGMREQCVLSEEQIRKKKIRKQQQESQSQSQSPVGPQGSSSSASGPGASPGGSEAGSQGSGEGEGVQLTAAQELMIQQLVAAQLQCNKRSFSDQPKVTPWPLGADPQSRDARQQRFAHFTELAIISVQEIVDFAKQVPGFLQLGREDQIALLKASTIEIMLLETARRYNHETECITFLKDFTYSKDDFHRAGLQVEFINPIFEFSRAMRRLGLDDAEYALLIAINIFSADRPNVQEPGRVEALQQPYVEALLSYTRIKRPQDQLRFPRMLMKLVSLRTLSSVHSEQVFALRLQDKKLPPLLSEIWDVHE
T1 sequence (P19793 1-462 partner): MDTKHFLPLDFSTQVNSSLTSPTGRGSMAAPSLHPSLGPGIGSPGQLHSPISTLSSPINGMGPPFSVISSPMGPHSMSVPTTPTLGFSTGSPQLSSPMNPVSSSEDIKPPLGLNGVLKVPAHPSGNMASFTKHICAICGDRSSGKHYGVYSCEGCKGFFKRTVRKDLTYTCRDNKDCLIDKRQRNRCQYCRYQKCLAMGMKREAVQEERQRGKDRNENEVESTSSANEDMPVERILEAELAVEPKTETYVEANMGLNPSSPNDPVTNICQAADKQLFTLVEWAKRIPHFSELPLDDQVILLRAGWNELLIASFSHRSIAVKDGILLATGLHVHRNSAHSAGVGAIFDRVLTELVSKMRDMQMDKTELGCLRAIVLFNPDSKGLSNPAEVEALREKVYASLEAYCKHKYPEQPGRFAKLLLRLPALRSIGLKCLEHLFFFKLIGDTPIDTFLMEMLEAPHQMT
Test: Co-transfection assay (LXRE luciferase reporter), LXRβ
Type: cell-based
Conditions: for EC50: CV-1 cells transfected with pCMX-hLXRβ and LXREx1-Tk-Luciferase, 20 hours incubation; for Emax: LXRβ co-transfection, relative to high control 1-(2,4-difluorobenzyl)-2-oxo-6-(4-phenoxyphenyl)-4-(trifluoromethyl)-1,2-dihydropyridine-3-carbonitrile, read-out: % Efficacy
In short: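 CV-1 / pCMX-hLXRβ + LXREx1-Tk-Luc + β-gal; cpd 20 h, 37 °C, ≤0.5% DMSO; Steady-Glo luminescence. 11-pt ½-log curves, duplicate wells, sigmoidal fit → EC50; % efficacy vs high-control agonist, DMSO low control; mean of ≥2 expts.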

| Structure (SMILES) | EC50 [nM] | Emax [%] |
| --- | --- | --- |
| Cc1nc(C(F)F)cn1-c1ccc(-c2cc(Cl)c(CO)c(S(C)(=O)=O)c2)cc1-n1nncc1-c1ccc(OC(F)(F)F)cc1 [Example 158, {3-chloro-4′-[4-(difluoromethyl)-2-methyl-1H-imidazol-1-yl]-5-(methylsulfonyl)-3′-(5-{4-[(trifluoromethyl)oxy]phenyl}-1H-1,2,3-triazol-1-yl)biphenyl-4-yl}methanol] | 1410 | 88 |
| CS(=O)(=O)c1cccc(-c2ccc(-n3cnc(C(F)(F)F)c3)c(-n3nncc3-c3ccc(Cl)cc3Cl)c2)c1 [Example 19, 5-(2,4-dichlorophenyl)-1-{3′-(methylsulfonyl)-4-[4-(trifluoromethyl)-1H-imidazol-1-yl]biphenyl-3-yl}-1H-1,2,3-triazole] | 1070 | 80 |
| Cc1nc(C(F)(F)F)cn1-c1ccc(-c2cccc(S(C)(=O)=O)c2)cc1-c1ocnc1Cc1ccc(OC(F)(F)F)cc1 [Example 636, 5-(4-(2-methyl-4-(trifluoromethyl)-1H-imidazol-1-yl)-3′-(methylsulfonyl)-[1,1′-biphenyl]-3-yl)-4-(4-(trifluoromethoxy)benzyl)oxazole] | 702 | 41 |
| Cc1nc(C(F)F)cn1-c1ccc(-c2cc(F)c(CO)c(S(C)(=O)=O)c2)cc1-n1nncc1-c1ccc(OC(F)(F)F)cc1 [Example 220, (4′-(4-(difluoromethyl)-2-methyl-1H-imidazol-1-yl)-3-fluoro-5-(methylsulfonyl)-3′-(5-(4-(trifluoromethoxy)phenyl)-1H-1,2,3-triazol-1-yl)-[1,1′-biphenyl]-4-yl)methanol] | 782 | 102 |
| Cc1nc(C(F)(F)F)cn1-c1c(F)cc(-c2cccc(S(=O)(=O)N3CCCC3)c2)cc1-n1nncc1-c1ccc(OC(F)(F)F)cc1 [Example 199, 1-{5-fluoro-4-[2-methyl-4-(trifluoromethyl)-1H-imidazol-1-yl]-3′-(pyrrolidin-1-ylsulfonyl)biphenyl-3-yl}-5-{4-[(trifluoromethyl)oxy]phenyl}-1H-1,2,3-triazole] | 384 | 66 |
| Cc1nc(C(F)(F)F)cn1-c1ccc(-c2cccc(S(C)(=O)=O)c2)cc1-n1nncc1Cc1ccc(Cl)c(Cl)c1 [Example 115, 5-[(3,4-dichlorophenyl)methyl]-1-{3′-(methylsulfonyl)-4-[2-methyl-4-(trifluoromethyl)-1H-imidazol-1-yl]biphenyl-3-yl}-1H-1,2,3-triazole] | 920 | 79 |
| Cc1nc(C(F)(F)F)cn1-c1ccc(-c2cccc(S(C)(=O)=O)c2)cc1-n1nncc1Cc1cccc(Cl)c1 [Example 121, 5-[(3-chlorophenyl)methyl]-1-{3′-(methylsulfonyl)-4-[2-methyl-4-(trifluoromethyl)-1H-imidazol-1-yl]biphenyl-3-yl}-1H-1,2,3-triazole] | 651 | 100 |
| Cc1nc(Cl)cn1-c1ccc(-c2cccc(S(C)(=O)=O)c2)cc1-n1nncc1-c1ccc(OC(F)(F)F)cc1 [Example 149, 1-[4-(4-chloro-2-methyl-1H-imidazol-1-yl)-3′-(methylsulfonyl)biphenyl-3-yl]-5-{4-[(trifluoromethyl)oxy]phenyl}-1H-1,2,3-triazole] | 444 | 75 |
| Cc1nc(C(F)(F)F)cn1-c1ccc(-c2cccc(S(C)(=O)=O)c2)cc1-n1nncc1-c1ccc(Cl)cc1F [Example 39, 5-(4-chloro-2-fluorophenyl)-1-{3′-(methylsulfonyl)-4-[2-methyl-4-(trifluoromethyl)-1H-imidazol-1-yl]biphenyl-3-yl}-1H-1,2,3-triazole] | 860 | 92 |

Compounds with a lower EC50, results first:

| EC50 [nM] | Emax [%] | Structure (SMILES) |
| --- | --- | --- |
| 355 | 83 | Cc1nc(C(F)(F)F)cn1-c1ccc(-c2cccc(S(C)(=O)=O)c2)cc1-n1nncc1Cc1ccc(Cl)cc1 [Example 125, 5-[(4-chlorophenyl)methyl]-1-{3′-(methylsulfonyl)-4-[2-methyl-4-(trifluoromethyl)-1H-imidazol-1-yl]biphenyl-3-yl}-1H-1,2,3-triazole] |
| 349 | 77 | Cc1nc(-c2cc(-c3cccc(S(C)(=O)=O)c3)ccc2-n2cc(C(F)(F)F)nc2C)c(-c2ccc(F)c(C#N)c2)o1 [Example 506, 2-fluoro-5-(2-methyl-4-(4-(2-methyl-4-(trifluoromethyl)-1H-imidazol-1-yl)-3′-(methylsulfonyl)biphenyl-3-yl)oxazol-5-yl)benzonitrile] |
| 269 | 64 | Cc1nc(-c2cc(-c3cccc(S(C)(=O)=O)c3)ccc2-n2cc(C(F)(F)F)nc2C)c(-c2cc(F)cc(F)c2)o1 [Example 447] |
| 248 | 45 | Cc1nc(-c2cc(-c3cccc(S(C)(=O)=O)c3)ccc2-n2cc(C#N)nc2C)c(-c2ccc3c(c2)OC(F)(F)O3)o1 [Example 371, 1-(3-(5-(2,2-difluorobenzo[d][1,3]dioxol-5-yl)-2-methyloxazol-4-yl)-3′-(methylsulfonyl)biphenyl-4-yl)-2-methyl-1H-imidazole-4-carbonitrile] |
| 233 | 73 | Cc1nc(-c2cc(-c3cccc([S+](C)[O-])c3)ccc2-n2cc(C(F)(F)F)nc2C)c(-c2ccc(OC(F)(F)F)cc2)o1 (stereo not drawn) [Example 533, 2-methyl-4-(4-(2-methyl-4-(trifluoromethyl)-1H-imidazol-1-yl)-3′-(methylsulfinyl)-[1,1′-biphenyl]-3-yl)-5-(4-(trifluoromethoxy)phenyl)oxazole] |
| 87 | 76 | Cc1nc(-c2cc(-c3cccc(S(C)(=O)=O)c3)ccc2-n2cc(C(F)(F)F)nc2C)c(-c2ccc(Cl)c(F)c2)o1 [Example 498, 5-(4-chloro-3-fluorophenyl)-2-methyl-4-(4-(2-methyl-4-(trifluoromethyl)-1H-imidazol-1-yl)-3′-(methylsulfonyl)biphenyl-3-yl)oxazole] |
| 85 | 99 | Cc1nc(C(F)(F)F)cn1-c1ccc(-c2cc(F)c(CO)c(S(C)(=O)=O)c2)cc1-n1nncc1-c1ccc(Cl)c(Cl)c1 [Example 81, {3′-[5-(3,4-dichlorophenyl)-1H-1,2,3-triazol-1-yl]-3-fluoro-5-(methylsulfonyl)-4′-[2-methyl-4-(trifluoromethyl)-1H-imidazol-1-yl]biphenyl-4-yl}methanol] |
| 58 | 70 | Cc1nc(-c2cc(-c3cc(F)c(CO)c(S(C)(=O)=O)c3)ccc2-n2cc(C(F)(F)F)nc2C)c(-c2ccc(F)c(Cl)c2)o1 [Example 509, (3′-(5-(3-chloro-4-fluorophenyl)-2-methyloxazol-4-yl)-3-fluoro-4′-(2-methyl-4-(trifluoromethyl)-1H-imidazol-1-yl)-5-(methylsulfonyl)biphenyl-4-yl)methanol] |
| 55 | 79 | Cc1nc(-c2cc(-c3cccc(S(C)(=O)=O)c3)ccc2-n2cc(C(F)(F)F)nc2C)c(-c2ccc(OC(F)F)c(Cl)c2)o1 [Example 398, 5-(3-chloro-4-(difluoromethoxy)phenyl)-2-methyl-4-(4-(2-methyl-4-(trifluoromethyl)-1H-imidazol-1-yl)-3′-(methylsulfonyl)biphenyl-3-yl)oxazole] |
| 45 | 49 | Cc1nc(-c2cc(-c3cc(F)c(CO)c(S(C)(=O)=O)c3)ccc2-n2cc(C(F)(F)F)nc2C)c(-c2cc(F)cc(Cl)c2)o1 [Example 450, (3′-(5-(3-chloro-5-fluorophenyl)-2-methyloxazol-4-yl)-3-fluoro-4′-(2-methyl-4-(trifluoromethyl)-1H-imidazol-1-yl)-5-(methylsulfonyl)biphenyl-4-yl)methanol] |
| 42 | 86 | Cc1nc(-c2cc(-c3ccc(CO)c(S(C)(=O)=O)c3)ccc2-n2cc(C(F)(F)F)nc2C)c(-c2ccc(OC(F)(F)F)cc2)o1 [Example 522, (4′-(2-methyl-4-(trifluoromethyl)-1H-imidazol-1-yl)-3′-(2-methyl-5-(4-(trifluoromethoxy)phenyl)oxazol-4-yl)-3-(methylsulfonyl)-[1,1′-biphenyl]4-yl)methanol] |
| 17 | 66 | Cc1nc(-c2cc(-c3cc(F)c(CO)c(S(C)(=O)=O)c3)ccc2-n2cc(C(F)(F)F)nc2C)c(-c2ccc(Cl)cc2Cl)o1 [Example 488, (3′-(5-(2,4-dichlorophenyl)-2-methyloxazol-4-yl)-3-fluoro-4′-(2-methyl-4-(trifluoromethyl)-1H-imidazol-1-yl)-5-(methylsulfonyl)biphenyl-4-yl)methanol] |
